“Also recorded” adds a separate entry of the source.
How the values were obtained:
[1] = target: T1, ABL1(F317I)-nonphosphorylated (Homo sapiens, UniProt P00519, F317I); experiment: KINOMEscan; assay type: binding; settings: 1 μM of compound 4; read-out: POC
T1 construct: purchased Eurofins DiscoverX Corporation

[2] = target: T2, ABL1(M351T)-phosphorylated (Homo sapiens, UniProt P00519, M351T); experiment: KINOMEscan; assay type: binding; settings: 1 μM of compound 4; read-out: POC
T2 construct: purchased Eurofins DiscoverX Corporation

ABL2 = target: T3, ABL2 (Homo sapiens, UniProt P42684); experiment: KINOMEscan; assay type: binding; settings: 1 μM of compound 4; read-out: POC
T3 construct: purchased Eurofins DiscoverX Corporation

CLK2 = CLK2 (Homo sapiens, UniProt P49760); experiment: KINOMEscan; assay type: binding; settings: 1 μM of compound 4; read-out: POC
DAPK2 = DAPK2 (Homo sapiens, UniProt Q9UIK4); experiment: KINOMEscan; assay type: binding; settings: 1 μM of compound 4; read-out: POC
Sequence of DAPK2 (Q9UIK4 whole entry): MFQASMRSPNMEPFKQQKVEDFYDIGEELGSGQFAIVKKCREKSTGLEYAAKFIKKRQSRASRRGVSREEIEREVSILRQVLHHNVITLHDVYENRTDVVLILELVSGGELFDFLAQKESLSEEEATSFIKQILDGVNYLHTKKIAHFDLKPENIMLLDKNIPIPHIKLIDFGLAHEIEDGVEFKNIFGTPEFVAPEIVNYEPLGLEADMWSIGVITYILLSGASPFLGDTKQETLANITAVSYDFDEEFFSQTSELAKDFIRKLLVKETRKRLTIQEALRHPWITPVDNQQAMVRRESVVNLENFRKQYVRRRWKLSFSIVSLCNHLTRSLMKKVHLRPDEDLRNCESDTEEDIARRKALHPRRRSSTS

DDR2 = DDR2 (Homo sapiens, UniProt Q16832); experiment: KINOMEscan; assay type: binding; settings: 1 μM of compound 4; read-out: POC
[3] = target: T4, EGFR(L747-E749del + A750P) (Homo sapiens, UniProt P00533, A750P/DEL747-749); experiment: KINOMEscan; assay type: binding; settings: 1 μM of compound 4; read-out: POC
T4 construct: purchased Eurofins DiscoverX (KINOMEscan service)

[4] = target: T5, EGFR(L747-S752del + P753S) (Homo sapiens, UniProt P00533, DEL747-752/P753S); experiment: KINOMEscan; assay type: binding; settings: 1 μM of compound 4; read-out: POC
T5 construct: purchased Eurofins DiscoverX (KINOMEscan service)
T5 sequence (P00533 with tags, fused parts or gaps DEL747-752/P753S): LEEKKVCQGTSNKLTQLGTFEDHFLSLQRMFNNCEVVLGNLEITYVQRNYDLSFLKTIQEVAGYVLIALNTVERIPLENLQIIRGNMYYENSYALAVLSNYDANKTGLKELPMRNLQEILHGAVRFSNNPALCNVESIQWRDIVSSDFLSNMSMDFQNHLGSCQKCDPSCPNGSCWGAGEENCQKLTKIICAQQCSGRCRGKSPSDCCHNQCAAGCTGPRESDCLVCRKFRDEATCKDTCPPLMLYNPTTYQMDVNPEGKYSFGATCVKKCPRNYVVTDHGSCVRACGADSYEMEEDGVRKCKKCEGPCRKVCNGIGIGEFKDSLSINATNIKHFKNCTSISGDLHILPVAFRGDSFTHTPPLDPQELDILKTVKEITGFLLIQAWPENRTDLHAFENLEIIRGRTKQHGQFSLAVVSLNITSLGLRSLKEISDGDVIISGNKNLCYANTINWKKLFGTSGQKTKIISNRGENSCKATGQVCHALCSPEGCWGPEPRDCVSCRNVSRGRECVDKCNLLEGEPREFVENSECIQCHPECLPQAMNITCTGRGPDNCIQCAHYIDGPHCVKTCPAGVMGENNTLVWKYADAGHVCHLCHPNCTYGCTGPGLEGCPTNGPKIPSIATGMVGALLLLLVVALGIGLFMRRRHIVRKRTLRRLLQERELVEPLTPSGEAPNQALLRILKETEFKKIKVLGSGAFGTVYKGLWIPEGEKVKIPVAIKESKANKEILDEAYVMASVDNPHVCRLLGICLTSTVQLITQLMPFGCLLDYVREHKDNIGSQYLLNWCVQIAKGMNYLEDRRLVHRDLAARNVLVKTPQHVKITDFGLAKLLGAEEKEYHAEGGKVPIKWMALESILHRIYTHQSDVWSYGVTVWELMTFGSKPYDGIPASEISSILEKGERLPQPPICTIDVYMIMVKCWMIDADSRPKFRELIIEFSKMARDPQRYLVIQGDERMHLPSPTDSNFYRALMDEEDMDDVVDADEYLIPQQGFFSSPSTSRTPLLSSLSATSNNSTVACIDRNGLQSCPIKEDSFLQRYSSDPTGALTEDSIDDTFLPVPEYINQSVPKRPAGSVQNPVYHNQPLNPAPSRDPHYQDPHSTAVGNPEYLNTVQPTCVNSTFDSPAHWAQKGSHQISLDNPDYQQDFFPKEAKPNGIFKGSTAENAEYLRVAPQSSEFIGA

ERK4 = target: T6, ERK4 (Homo sapiens, UniProt P31152); experiment: KINOMEscan; assay type: binding; settings: 1 μM of compound 4; read-out: POC
T6 construct: purchased Eurofins DiscoverX Corporation
T6 sequence (P31152 whole entry): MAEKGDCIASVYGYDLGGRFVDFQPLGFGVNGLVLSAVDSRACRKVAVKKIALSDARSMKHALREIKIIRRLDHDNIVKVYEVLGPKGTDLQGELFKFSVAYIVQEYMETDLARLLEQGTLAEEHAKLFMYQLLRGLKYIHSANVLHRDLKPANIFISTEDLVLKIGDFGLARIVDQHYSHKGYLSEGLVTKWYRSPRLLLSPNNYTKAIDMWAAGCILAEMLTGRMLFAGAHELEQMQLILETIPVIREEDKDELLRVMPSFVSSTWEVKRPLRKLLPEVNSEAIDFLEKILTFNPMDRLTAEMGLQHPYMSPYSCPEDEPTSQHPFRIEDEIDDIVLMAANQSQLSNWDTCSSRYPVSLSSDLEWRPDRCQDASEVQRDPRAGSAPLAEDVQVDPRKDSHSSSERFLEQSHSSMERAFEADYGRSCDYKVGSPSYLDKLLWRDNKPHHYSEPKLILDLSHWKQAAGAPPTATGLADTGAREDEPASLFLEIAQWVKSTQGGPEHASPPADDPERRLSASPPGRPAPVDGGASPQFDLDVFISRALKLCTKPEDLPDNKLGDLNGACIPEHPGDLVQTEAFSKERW

FRK = target: T7, FRK (Homo sapiens, UniProt P42685); experiment: KINOMEscan; assay type: binding; settings: 1 μM of compound 4; read-out: POC
T7 construct: purchased Eurofins DiscoverX Corporation

HASPIN = target: T8, HASPIN (Homo sapiens, UniProt Q8TF76); experiment: KINOMEscan; assay type: binding; settings: 1 μM of compound 4; read-out: POC
T8 construct: purchased Eurofins DiscoverX Corporation

KIT(D816V) = KIT(D816V) (Homo sapiens, UniProt P10721, D816V); experiment: KINOMEscan; assay type: binding; settings: 1 μM of compound 4; read-out: POC
LRRK2 = LRRK2 (Homo sapiens, UniProt Q5S007); experiment: KINOMEscan; assay type: binding; settings: 1 μM of compound 4; read-out: POC
LTK = LTK (Homo sapiens, UniProt P29376); experiment: KINOMEscan; assay type: binding; settings: 1 μM of compound 4; read-out: POC
Sequence of LTK (P29376 17-864): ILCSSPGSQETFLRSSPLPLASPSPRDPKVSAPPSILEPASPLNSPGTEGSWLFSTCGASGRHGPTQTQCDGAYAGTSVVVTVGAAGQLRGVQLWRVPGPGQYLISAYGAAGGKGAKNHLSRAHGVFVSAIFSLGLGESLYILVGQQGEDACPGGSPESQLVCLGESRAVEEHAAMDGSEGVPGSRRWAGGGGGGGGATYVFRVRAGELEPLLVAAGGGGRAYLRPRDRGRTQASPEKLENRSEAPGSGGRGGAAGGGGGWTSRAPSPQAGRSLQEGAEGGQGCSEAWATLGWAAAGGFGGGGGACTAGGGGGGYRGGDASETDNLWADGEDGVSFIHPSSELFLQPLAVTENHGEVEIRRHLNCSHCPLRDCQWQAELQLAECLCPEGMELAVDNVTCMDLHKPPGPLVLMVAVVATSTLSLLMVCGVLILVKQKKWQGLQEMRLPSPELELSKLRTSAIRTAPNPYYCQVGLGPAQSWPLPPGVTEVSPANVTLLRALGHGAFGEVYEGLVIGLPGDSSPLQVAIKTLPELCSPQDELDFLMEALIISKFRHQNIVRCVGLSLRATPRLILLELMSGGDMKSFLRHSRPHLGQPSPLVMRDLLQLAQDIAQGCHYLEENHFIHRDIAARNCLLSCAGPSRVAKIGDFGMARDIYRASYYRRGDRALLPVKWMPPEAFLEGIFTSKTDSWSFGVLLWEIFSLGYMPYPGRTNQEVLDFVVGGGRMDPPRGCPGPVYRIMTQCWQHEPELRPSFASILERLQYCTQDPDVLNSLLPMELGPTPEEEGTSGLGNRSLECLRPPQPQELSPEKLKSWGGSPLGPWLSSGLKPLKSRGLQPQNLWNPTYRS

MKK7 = MKK7 (Homo sapiens, UniProt O14733); experiment: KINOMEscan; assay type: binding; settings: 1 μM of compound 4; read-out: POC
MYLK = MYLK (Homo sapiens, UniProt Q15746); experiment: KINOMEscan; assay type: binding; settings: 1 μM of compound 4; read-out: POC
MYLK2 = MYLK2 (Homo sapiens, UniProt Q9H1R3); experiment: KINOMEscan; assay type: binding; settings: 1 μM of compound 4; read-out: POC
Sequence of MYLK2 (Q9H1R3 whole entry): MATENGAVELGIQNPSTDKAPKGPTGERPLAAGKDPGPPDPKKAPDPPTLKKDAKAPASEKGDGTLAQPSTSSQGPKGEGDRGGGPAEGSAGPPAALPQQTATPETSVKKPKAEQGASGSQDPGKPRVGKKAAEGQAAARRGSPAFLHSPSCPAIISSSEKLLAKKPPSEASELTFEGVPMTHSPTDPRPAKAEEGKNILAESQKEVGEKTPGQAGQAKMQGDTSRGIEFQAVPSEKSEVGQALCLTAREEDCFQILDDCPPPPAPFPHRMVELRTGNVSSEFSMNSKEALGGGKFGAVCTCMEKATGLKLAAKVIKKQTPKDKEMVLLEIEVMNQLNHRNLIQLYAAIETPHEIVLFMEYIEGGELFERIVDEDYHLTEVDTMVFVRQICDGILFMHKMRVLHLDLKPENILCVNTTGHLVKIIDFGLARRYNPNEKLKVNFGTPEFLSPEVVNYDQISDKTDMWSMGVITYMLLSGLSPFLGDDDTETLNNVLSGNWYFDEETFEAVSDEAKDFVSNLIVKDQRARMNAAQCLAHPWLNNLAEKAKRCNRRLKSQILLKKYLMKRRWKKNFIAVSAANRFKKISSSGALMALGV

NDR1 = NDR1 (Homo sapiens, UniProt Q15208); experiment: KINOMEscan; assay type: binding; settings: 1 μM of compound 4; read-out: POC
NEK3 = NEK3 (Homo sapiens, UniProt P51956); experiment: KINOMEscan; assay type: binding; settings: 1 μM of compound 4; read-out: POC
NEK4 = NEK4 (Homo sapiens, UniProt P51957); experiment: KINOMEscan; assay type: binding; settings: 1 μM of compound 4; read-out: POC
OSR1 = target: T9, OSR1 (Homo sapiens, UniProt O95747); experiment: KINOMEscan; assay type: binding; settings: 1 μM of compound 4; read-out: POC
T9 construct: purchased Eurofins DiscoverX Corporation (KINOMEscan)
T9 sequence (O95747 whole entry): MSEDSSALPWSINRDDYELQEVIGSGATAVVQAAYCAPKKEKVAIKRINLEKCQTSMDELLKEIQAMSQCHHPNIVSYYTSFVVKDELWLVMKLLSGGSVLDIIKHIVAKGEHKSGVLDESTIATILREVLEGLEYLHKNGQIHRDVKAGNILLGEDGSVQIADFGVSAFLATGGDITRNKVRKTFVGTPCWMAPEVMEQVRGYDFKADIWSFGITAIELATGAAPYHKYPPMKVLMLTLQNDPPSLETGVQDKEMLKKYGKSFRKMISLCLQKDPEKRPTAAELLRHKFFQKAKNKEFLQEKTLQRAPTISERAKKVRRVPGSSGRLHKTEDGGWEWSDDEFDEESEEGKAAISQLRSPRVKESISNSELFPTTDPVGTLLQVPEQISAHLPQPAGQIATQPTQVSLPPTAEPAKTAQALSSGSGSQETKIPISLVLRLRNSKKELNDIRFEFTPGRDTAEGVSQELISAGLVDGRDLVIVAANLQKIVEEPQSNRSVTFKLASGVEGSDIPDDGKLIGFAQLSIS

PFTK1 = PFTK1 (Homo sapiens, UniProt O94921); experiment: KINOMEscan; assay type: binding; settings: 1 μM of compound 4; read-out: POC
PIK3CG = PIK3CG (Homo sapiens, UniProt P48736); experiment: KINOMEscan; assay type: binding; settings: 1 μM of compound 4; read-out: POC
PIK4CB = PIK4CB (Homo sapiens, UniProt Q9UBF8); experiment: KINOMEscan; assay type: binding; settings: 1 μM of compound 4; read-out: POC
PLK4 = PLK4 (Homo sapiens, UniProt O00444); experiment: KINOMEscan; assay type: binding; settings: 1 μM of compound 4; read-out: POC
PRKCE = PRKCE (Homo sapiens, UniProt Q02156); experiment: KINOMEscan; assay type: binding; settings: 1 μM of compound 4; read-out: POC
RIPK5 = target: T10, RIPK5 (Homo sapiens, UniProt Q6XUX3); experiment: KINOMEscan; assay type: binding; settings: 1 μM of compound 4; read-out: POC
T10 construct: purchased Eurofins DiscoverX Corporation (KINOMEscan screening service)

[5] = target: T11, RSK3(Kin.Dom.1-N-terminal) (Homo sapiens, UniProt Q15349); experiment: KINOMEscan; assay type: binding; settings: 1 μM of compound 4; read-out: POC
T11 construct: RSK3(Kin.Dom.1-N-terminal); purchased Eurofins DiscoverX (KINOMEscan service)
T11 sequence (Q15349 59-318 limits assumed): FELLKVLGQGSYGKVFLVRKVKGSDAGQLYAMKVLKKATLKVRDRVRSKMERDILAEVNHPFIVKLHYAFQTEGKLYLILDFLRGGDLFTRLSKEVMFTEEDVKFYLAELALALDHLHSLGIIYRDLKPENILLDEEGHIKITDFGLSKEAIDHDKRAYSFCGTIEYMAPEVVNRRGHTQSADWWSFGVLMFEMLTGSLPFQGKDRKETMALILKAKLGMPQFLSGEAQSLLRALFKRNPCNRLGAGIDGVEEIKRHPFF

SNRK = target: T12, SNRK (Homo sapiens, UniProt Q9NRH2); experiment: KINOMEscan; assay type: binding; settings: 1 μM of compound 4; read-out: POC
T12 construct: purchased Eurofins DiscoverX (KINOMEscan service)

SRPK2 = target: T13, SRPK2 (Homo sapiens, UniProt P78362); experiment: KINOMEscan; assay type: binding; settings: 1 μM of compound 4; read-out: POC
T13 construct: purchased Eurofins DiscoverX (KINOMEscan service)

TAK1 = target: T14, TAK1 (Homo sapiens, UniProt O43318); experiment: KINOMEscan; assay type: binding; settings: 1 μM of compound 4; read-out: POC
T14 construct: purchased Eurofins DiscoverX Corporation
T14 sequence (O43318 whole entry): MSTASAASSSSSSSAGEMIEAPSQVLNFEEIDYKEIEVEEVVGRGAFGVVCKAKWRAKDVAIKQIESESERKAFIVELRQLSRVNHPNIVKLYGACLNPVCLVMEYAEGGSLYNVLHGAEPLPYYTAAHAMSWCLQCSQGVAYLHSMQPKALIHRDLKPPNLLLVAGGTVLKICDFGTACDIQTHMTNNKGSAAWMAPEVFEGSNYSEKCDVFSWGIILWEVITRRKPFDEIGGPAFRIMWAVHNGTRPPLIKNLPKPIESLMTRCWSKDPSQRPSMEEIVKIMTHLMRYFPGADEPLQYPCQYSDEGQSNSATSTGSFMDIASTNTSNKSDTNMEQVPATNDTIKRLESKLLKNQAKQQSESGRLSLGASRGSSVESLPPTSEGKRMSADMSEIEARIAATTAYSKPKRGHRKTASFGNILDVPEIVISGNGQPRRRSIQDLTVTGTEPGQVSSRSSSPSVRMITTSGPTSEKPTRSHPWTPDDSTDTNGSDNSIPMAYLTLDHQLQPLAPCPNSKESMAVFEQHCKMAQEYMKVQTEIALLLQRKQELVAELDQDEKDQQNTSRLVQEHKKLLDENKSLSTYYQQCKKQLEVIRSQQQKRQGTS

YES = target: T15, YES (Homo sapiens, UniProt P07947); experiment: KINOMEscan; assay type: binding; settings: 1 μM of compound 4; read-out: POC
T15 construct: purchased Eurofins DiscoverX

[6] = system: EGFR (delE746-A750) in HCC827 cells; experiment: Western blotting of EGFR phosphorylation; assay type: cell-based, human; settings: 6 hours treatment
Method: FIG. 2. […] All experiments performed after 6 hours treatments of inhibitors or DMSO controls and Western blots are representative of at least three independent experiments.
Western blotting. Cells were collected and lysed with lysis buffer (5M NaCl, 1M TRIS pH 8.0, 10% SDS, 10% Triton X-100 and a tablet of protease inhibitors) and processed for Western blotting analysis. Primary antibodies used; phospho-EGFR (Tyr1068; #2234, 1:1,000), EGFR (#4267; 1:1,000), phospho-AKT (Ser473; #4060, 1:1,000), AKT (#9272, 1:1,000), phospho-ERK1/2 (Thr202/Tyr204; #4370, 1:1,000), and ERK1/2 (#4695, 1:1,000) antibodies; were purchased from Cell Signaling Technology. Secondary Goat anti-rabbit IgG starbright blue 700 and Anti-tubulin hFAB Rhodamine Tubulin were purchased from Bio-rad.

SMILES: C=CC(=O)Nc1ccc(OC)c(Nc2cc(-c3[nH]c(CC)nc3-c3cccc(NC(=O)c4cccc5c4NC(=O)c4ccccc4N5)c3)ccn2)c1 [Compound 4, N-(3-(5-(2-((5-Acrylamido-2-methoxyphenyl)amino)pyridin-4-yl)-2-ethyl-1H-imidazol-4-yl)phenyl)-11-oxo-10,11-dihydro-5H-dibenzo[b,e][1,4]diazepine-9-carboxamide]
- remaining binding at 1 µM [1]: 40%
- remaining binding at 1 µM [2]: 67%
- remaining binding at 1 µM (ABL2): 92%
- remaining binding at 1 µM (CLK2): 63%
- remaining binding at 1 µM (DAPK2): 100%
- remaining binding at 1 µM (DDR2): 100%
- remaining binding at 1 µM [3]: 8%
- remaining binding at 1 µM [4]: 16%
- remaining binding at 1 µM (ERK4): 100%
- remaining binding at 1 µM (FRK): 20%
- remaining binding at 1 µM (HASPIN): 100%
- remaining binding at 1 µM (KIT(D816V)): 94%
- remaining binding at 1 µM (LRRK2): 93%
- remaining binding at 1 µM (LTK): 48%
- remaining binding at 1 µM (MKK7): 31%
- remaining binding at 1 µM (MYLK): 84%
- remaining binding at 1 µM (MYLK2): 84%
- remaining binding at 1 µM (NDR1): 73%
- remaining binding at 1 µM (NEK3): 100%
- remaining binding at 1 µM (NEK4): 100%
- remaining binding at 1 µM (OSR1): 89%
- remaining binding at 1 µM (PFTK1): 90%
- remaining binding at 1 µM (PIK3CG): 65%
- remaining binding at 1 µM (PIK4CB): 93%
- remaining binding at 1 µM (PLK4): 71%
- remaining binding at 1 µM (PRKCE): 100%
- remaining binding at 1 µM (RIPK5): 79%
- remaining binding at 1 µM [5]: 97%
- remaining binding at 1 µM (SNRK): 82%
- remaining binding at 1 µM (SRPK2): 100%
- remaining binding at 1 µM (TAK1): 95%
- remaining binding at 1 µM (YES): 20%
- EGFR phosphorylation (Western blot) [6]: similarly active; also recorded: effectively ablates EGFR (delE746-A750) phosphorylation

— patent US20260224588A1, “BENZODIAZEPINONE-DERIVED INHIBITORS OF EGFR AND HER2” (The Research Foundation for the State University of New York, priority 2023, published 2026)
